Non-standard residues stand in square brackets, D forms with d. No end group written: not given here. *: point of attachment. βGlc = OC[C@H]1O[C@@H](*)[C@H](O)[C@@H](O)[C@@H]1O; Tyr(3,5-I2) = N[C@@H](Cc1cc(I)c(O)c(I)c1)C(=O)O; Dap = NC[C@H](N)C(=O)O
Legend:
[1] = system: ovariectomised (OVX) ewes; assay: Voluntary food intake in animals with icv infusion; type: in vivo
Method: This experiment was conducted using ovariectomised (OVX) ewes (n=4/group: 55 kg). Ovariectomy removes cyclic effects of ovarian steroids, which affect sensitivity to leptin. The experiments were performed in an isolated room with an ambient temperature range of 17-22° C. […] peptide was administered to animals by way of Silastic cannulae introduced into the lateral cerebral ventricle (H8) for intracerebroventricular (icv) infusion. For infusion, pyrogen-free leptin peptide was dissolved in 0.1 mM HCl and diluted in artificial cerebrospinal fluid (aCSF) to a concentration of 10 μg/100 μl. All infusions were initiated at 0900 hours and control animals received an infusion of aCSF 100 μl/hour.

MCF-7 cells = assay: MCF-7 cell stimulation (cell growth) assay, cell counts by trypan blue exclusion; type: cell-based, human; settings: for MCF-7 cell count increase: no leptin
Excerpt: For the evaluation of the biological activity of the synthesized leptin Site III peptide fragments, human cell lines were selected in which the ObR expression level is known. Two ObR-positive human cell models were used: MCF-7 breast cancer cells and DU-45 prostate cancer cells. Both cell lines express ObR, and leptin and leptin analogues stimulate their growth (C. Garofalo, et al., Clin. Cancer Res., 2004, 10, 6466-6475; C. Garofalo, et al., Clin. Cancer Res., 2006, 12, 1447-1453). Normal mammary epithelial MCF-10 cells lacking ObR were used as a negative control (X. Hu, et al., J. Natl. Cancer Inst., 2002, 94, 1704-1711).
Biological activity of the Site III peptides was assayed as follows. MCF-7 cells were stimulated with 6 nM full-sized leptin. The smaller leptin fragments and analogs were added to the cell culture at a concentration of 10 nM, 100 nM or 1 μM. Leptin at […] concentration stimulated MCF-7 cell growth by approximately 40%, in line with previous observations (C. Garofalo, et al., Clin. Cancer Res., 2004, 10, 6466-6475). All Site III peptides bound to the extracellular domain of ObR as documented by dot-blot or Western-blot analysis. […] In fact, it reversed leptin induced stimulation of MCF-7 cells at as low as 10 nM peptide concentration, with an additional 50% reduction in cell counts at 1 μM. When the assay was run at a more reliably measurable 1 μM peptide concentration, a consistent 6% decrease in cell numbers could be observed compared to the leptin only samples. In summary, in the presence of exogenously added full-sized leptin these assays verified the strong antagonist activity of the Site III Ala,Ala mutant.
The cell stimulation activity of the Site III peptides was assayed as follows. Human leptin was purchased from R&D Systems and used at a concentration of 100 ng/mL (approximately 6 nM). MCF-7 and DU-45 cells naturally expressing ObR were grown in a standard medium DMEM:F12 plus 5% fetal bovine serum. MCF-10 was grown in serum-free mammalian epithelial growth medium supplemented with 100 ng/mL cholera toxin. Seventy percent confluent cultures were synchronized in serum-free medium (DMEM plus 10 μM FeSO4, plus 0.5% albumin) for 24 h and then treated with leptin and/or peptides (different doses) for 5 days. Cell counts before and after treatment were determined by counting the cells using trypan blue exclusion. All assays were conducted in triplicate and repeated at least twice.

## Tyr(I2)-Serβ(Glc)-Thr-Glu-Va1-Va1-Ala-Leu-Ser-Arg-Leu-Dap(Ac) ([Tyr(3,5-I2)]S(βGlc)TEVVALSRL[Dap](Ac)-NH2) [E1Free]
[1]; 10 μg/hour for 7 hours icv, program-fed OVX ewes, P<0.05
  reduction of voluntary food intake compared to controls (aCSF): approx. 25%
[1]; icv infusion, OVX ewes, over the course of two days
  effect on voluntary food intake: voluntarily reduce the amount of food taken in
MCF-7 cells; 100 nM peptide
  MCF-7 cell count increase: 81%
MCF-7 cells; 1000 nM peptide, in the presence of 6 nM leptin
  further increase of leptin-induced cell stimulation: 84%
MCF-7 cells; 1000 nM peptide
  MCF-7 cell count increase: 114%
MCF-7 cells; in the presence and absence of leptin
  overall agonist character on cells expressing ObR: full agonists
